Source: patent publication US8187373B2, “Printing inks for offset and/or high printing containing NIR absorbers and NIR absorbers soluble in offset and/or high printing inks” (BASF SE, priority 2004, dated 2012)

Experiments:
[1] = Testing of the NIR absorbers in yellow heatset offset printing ink, printed on paper; assay type: physicochemical; settings: 0.5% by weight in commercial yellow heatset offset printing ink
Description: In each case 0.5% by weight of the absorber A1 or A2 not according to the invention was added to a commercial yellow heatset offset printing ink, and the mixtures were thoroughly stirred.
Samples of the inks obtained were printed on paper.
The procedure was as in the comparative example, except that in each case 0.5% by weight of the novel NIR absorber B2 or B4 was used.

[2] = Extinction of a thin layer of printing varnish containing NIR absorber (absorption spectrum 400-1000 nm); assay type: physicochemical; settings: 1.0% by weight NIR absorber
Description: Two conventional varnishes for the preparation of offset printing inks were used for the test. Varnishes are prepared formulations comprising binder and solvent, but as yet without colorant. In this way, it is possible to study the behavior of the NIR absorber also spectroscopically without interference by the colorant.
A varnish for the preparation of heatset inks comprising about 45% by weight of a low-aromatics mineral oil (boiling range from 240 to 270° C.), about 45% by weight of a rosin-modified phenol resin and about 10% by weight of an alkyd resin was used, as well as a varnish for the preparation of sheet-fed offset inks comprising about 45% by weight of a low-aromatics mineral oil (boiling range from 260 to 290° C.), about 45% by weight of a rosin-modified phenol resin and about 10% by weight of linseed oil.
Furthermore, a thin layer of above liquids was produced and was investigated spectroscopically. For this purpose, the above liquids were diluted 1:5 with dichloromethane, and the resulting solution was applied to a microscope slide by means of a knife coater so that, after evaporation of the dichloromethane, a layer of about 2 μm thick remained. An absorption spectrum (400-1000 nm) of this layer was then recorded after 2 hours.

| Compound | dissolution of NIR absorber in the offset ink [1] | extinction E at 810 nm [2] |
| --- | --- | --- |
| CCN1/C(=C/C=C2\CCC(/C=C/C3=[N+](CC)c4ccccc4C3(C)C)=C2Cl)C(C)(C)c2ccccc21 [Compound A2] | did not dissolve | < 0.01 |
| CCN1/C(=C/C=C2\CCC(/C=C/C3=[N+](CC)c4ccccc4C3(C)C)=C2Cl)C(C)(C)c2ccccc21 [Compound B4] | dissolved completely | 0.83 |
